In patent US20180000085A1, “USE OF PICOLINAMIDE COMPOUNDS WITH FUNGICIDAL ACTIVITY” (DOW AGROSCIENCES LLC, priority 2014, published 2018):

Key:
Zymoseptoria tritici = assay: Leaf blotch of wheat (SEPTTR) disease control on wheat seedlings; format: in vivo; parameters: key to SEPTTR 1DP, HV activity at 100 ppm (% control rating) / SEPTTR 3DC, HV activity at 100 ppm (% control rating) / SEPTTR disease control, 1DP / SEPTTR disease control, 3DC / SEPTTR 1DP disease control rating, HV activity / SEPTTR 3DC disease control rating, HV activity / SEPTTR 3DC, LV activity at 125.1 g/H (% Control rating) / SEPTTR 1DP, LV activity at 125.1 g/H (% Control rating) / SEPTTR 1DP disease control rating, LV activity at 125.1 g/H / SEPTTR 3DC disease control rating, LV activity at 125.1 g/H / SEPTTR 3DC disease control rating, HV activity at 100 ppm / SEPTTR 1DP disease control rating, HV activity at 100 ppm / HV activity at 100 ppm SEPTTR 3DC (disease control rating) / HV activity at 100 ppm SEPTTR 1DP (disease control rating) / LV activity at 125.1 g/H SEPTTR 1DP (disease control rating) / LV activity at 125.1 g/H SEPTTR 3DC (disease control rating): A: > 80; B: ≤ 80; C: Not Tested; D: No Activity Observed in the Reported Assay; conditions: for SEPTTR 1DP disease control rating, HV activity / SEPTTR 3DC disease control rating, HV activity: HV application at 100 ppm; for SEPTTR 1DP disease control rating, HV activity at 100 ppm: 1 day protectant; for SEPTTR 3DC disease control rating, HV activity at 100 ppm: 3 day curative
Puccinia triticina = assay: Wheat brown rust (PUCCRT) disease control on wheat seedlings; format: in vivo; parameters: key to PUCCRT 3DC, HV activity at 100 ppm (% control rating) / PUCCRT disease control, 3DC / PUCCRT 1DP disease control rating, HV activity / PUCCRT 3DC disease control rating, HV activity / PUCCRT 3DC, LV activity at 125.1 g/H (% Control rating) / PUCCRT 1DP, LV activity at 125.1 g/H (% Control rating) / PUCCRT 3DC disease control rating, LV activity at 125.1 g/H / PUCCRT 1DP disease control rating, LV activity at 125.1 g/H / PUCCRT 3DC disease control rating, HV activity at 100 ppm / PUCCRT 1DP disease control rating, HV activity at 100 ppm / HV activity at 100 ppm PUCCRT 3DC (disease control rating) / LV activity at 125.1 g/H PUCCRT 1DP (disease control rating) / LV activity at 125.1 g/H PUCCRT 3DC (disease control rating): A: > 80; B: ≤ 80; C: Not Tested; D: No Activity Observed in the Reported Assay; conditions: for PUCCRT 1DP disease control rating, HV activity / PUCCRT 3DC disease control rating, HV activity: HV application at 100 ppm; for PUCCRT 1DP disease control rating, HV activity at 100 ppm: 1 day protectant; for PUCCRT 3DC disease control rating, HV activity at 100 ppm: 3 day curative
[1] = 1 Day Protectant, wheat leaf blotch
[2] = 3 Day Curative, wheat leaf blotch
[3] = 1 Day Protectant, wheat brown rust
[4] = 3 Day Curative, wheat brown rust
[5] = HV activity at 100 ppm, 1 Day Protectant, wheat
[6] = HV activity at 100 ppm, 3 Day Curative, wheat
[7] = high volume application, 100 ppm, 1DP
[8] = high volume application, 100 ppm, 3DC
[9] = high volume application, 100 ppm
[10] = low volume application, 125.1 g/H, 1 Day Protectant
[11] = low volume application, 125.1 g/H, 3 Day Curative

CCC(CC)[C@@H](Oc1cccc(F)c1)[C@H](C)OC(=O)[C@@H](NC(=O)c1nccc(OC)c1O)C(C)C [Cmpd 404]
SEPTTR 1DP disease control rating, HV activity (Zymoseptoria tritici; [1]): A (> 80) | SEPTTR 3DC disease control rating, HV activity (Zymoseptoria tritici; [2]): D | PUCCRT 1DP disease control rating, HV activity (Puccinia triticina; [3]): B (≤ 80) | PUCCRT 3DC disease control rating, HV activity (Puccinia triticina; [4]): D

CCCOC(CC)C(Oc1ccccc1)C(C)OC(=O)C(CC(C)C)NC(=O)c1nccc(OC)c1O (stereo not shown) [Cmpd 291]
SEPTTR disease control, 1DP (Zymoseptoria tritici; [5]): D | SEPTTR disease control, 3DC (Zymoseptoria tritici; [6]): D | SEPTTR 1DP disease control rating, HV activity (Zymoseptoria tritici; [1]): D | SEPTTR 3DC disease control rating, HV activity (Zymoseptoria tritici; [2]): D | SEPTTR 1DP, HV activity at 100 ppm (% control rating) (Zymoseptoria tritici; [7]): D | SEPTTR 3DC, HV activity at 100 ppm (% control rating) (Zymoseptoria tritici; [8]): D | PUCCRT disease control, 1DP (Puccinia triticina; [5]): B (≤ 80) | PUCCRT disease control, 3DC (Puccinia triticina; [6]): D | PUCCRT 1DP disease control rating, HV activity (Puccinia triticina; [3]): B (≤ 80) | PUCCRT 3DC disease control rating, HV activity (Puccinia triticina; [4]): D | PUCCRT 1DP, HV activity at 100 ppm (% control rating) (Puccinia triticina; [7]): B (≤ 80) | PUCCRT 3DC, HV activity at 100 ppm (% control rating) (Puccinia triticina; [8]): D

CCC[C@@H](Oc1ccc(C)cc1)[C@H](C)OC(=O)[C@H](C)NC(=O)c1nccc(OC)c1O [Cmpd 1012]
SEPTTR 1DP disease control rating, HV activity at 100 ppm (Zymoseptoria tritici; [9]): B (≤ 80) | SEPTTR 3DC disease control rating, HV activity at 100 ppm (Zymoseptoria tritici; [9]): B (≤ 80) | PUCCRT 1DP disease control rating, HV activity at 100 ppm (Puccinia triticina; [9]): A (> 80) | PUCCRT 3DC disease control rating, HV activity at 100 ppm (Puccinia triticina; [9]): A (> 80)

CCC(CC)C(Oc1ccccc1Cl)C(C)OC(=O)C(C)NC(=O)c1nccc(OC)c1O (stereo not shown) [Cmpd 384]
SEPTTR 1DP disease control rating, HV activity (Zymoseptoria tritici; [1]): B (≤ 80) | SEPTTR 3DC disease control rating, HV activity (Zymoseptoria tritici; [2]): A (> 80) | PUCCRT 1DP disease control rating, HV activity (Puccinia triticina; [3]): A (> 80) | PUCCRT 3DC disease control rating, HV activity (Puccinia triticina; [4]): A (> 80)

COc1ccnc(C(=O)N[C@@H](C)C(=O)O[C@@H](C)[C@H](Oc2cccc(Cl)c2)c2ccccc2)c1OC(C)=O [Cmpd 638]
SEPTTR 1DP, LV activity at 125.1 g/H (% Control rating) (Zymoseptoria tritici; [10]): A (> 80) | SEPTTR 3DC, LV activity at 125.1 g/H (% Control rating) (Zymoseptoria tritici; [11]): A (> 80) | PUCCRT 1DP, LV activity at 125.1 g/H (% Control rating) (Puccinia triticina; [10]): A (> 80) | PUCCRT 3DC, LV activity at 125.1 g/H (% Control rating) (Puccinia triticina; [11]): B (≤ 80)

CCCOC[C@@H](Oc1ccccc1)[C@H](C)OC(=O)[C@H](C)NC(=O)c1nccc(OC)c1O [Cmpd 310]
SEPTTR 1DP disease control rating, HV activity (Zymoseptoria tritici; [1]): D | SEPTTR 3DC disease control rating, HV activity (Zymoseptoria tritici; [2]): B (≤ 80) | PUCCRT 1DP disease control rating, HV activity (Puccinia triticina; [3]): A (> 80) | PUCCRT 3DC disease control rating, HV activity (Puccinia triticina; [4]): A (> 80)

COc1ccnc(C(=O)N[C@@H](C)C(=O)O[C@@H](C)[C@H](OCC(C)C)C2CCCC2)c1O [Cmpd 844]
SEPTTR 1DP disease control rating, HV activity at 100 ppm (Zymoseptoria tritici; [9]): B (≤ 80) | SEPTTR 3DC disease control rating, HV activity at 100 ppm (Zymoseptoria tritici; [9]): A (> 80) | PUCCRT 1DP disease control rating, HV activity at 100 ppm (Puccinia triticina; [9]): A (> 80) | PUCCRT 3DC disease control rating, HV activity at 100 ppm (Puccinia triticina; [9]): A (> 80)

COc1ccnc(C(=O)N[C@@H](C)C(=O)O[C@@H](C)[C@H](Oc2ccc(F)cc2)C2CCCC2)c1O [Cmpd 840]
SEPTTR 1DP disease control rating, HV activity at 100 ppm (Zymoseptoria tritici; [9]): B (≤ 80) | SEPTTR 3DC disease control rating, HV activity at 100 ppm (Zymoseptoria tritici; [9]): A (> 80) | PUCCRT 1DP disease control rating, HV activity at 100 ppm (Puccinia triticina; [9]): A (> 80) | PUCCRT 3DC disease control rating, HV activity at 100 ppm (Puccinia triticina; [9]): A (> 80)

CCC(CC)[C@@H](Oc1ccc(F)cc1)[C@H](C)OC(=O)[C@@H](NC(=O)c1nccc(OC)c1O)C(C)C [Cmpd 405]
SEPTTR 1DP disease control rating, HV activity (Zymoseptoria tritici; [1]): B (≤ 80) | SEPTTR 3DC disease control rating, HV activity (Zymoseptoria tritici; [2]): B (≤ 80) | PUCCRT 1DP disease control rating, HV activity (Puccinia triticina; [3]): A (> 80) | PUCCRT 3DC disease control rating, HV activity (Puccinia triticina; [4]): B (≤ 80)

COc1ccnc(C(=O)N[C@@H](C)C(=O)O[C@@H](C)[C@@H](CC(C)C)Oc2cc(F)ccc2F)c1OC(C)=O [Cmpd 1114]
LV activity at 125.1 g/H SEPTTR 1DP (disease control rating) (Zymoseptoria tritici; low volume application, 125.1 g/H, 1 Day Protectant, wheat leaf blotch): A (> 80) | LV activity at 125.1 g/H SEPTTR 3DC (disease control rating) (Zymoseptoria tritici; low volume application, 125.1 g/H, 3 Day Curative, wheat leaf blotch): A (> 80) | LV activity at 125.1 g/H PUCCRT 1DP (disease control rating) (Puccinia triticina; low volume application, 125.1 g/H, 1 Day Protectant, wheat brown rust): A (> 80) | LV activity at 125.1 g/H PUCCRT 3DC (disease control rating) (Puccinia triticina; low volume application, 125.1 g/H, 3 Day Curative, wheat brown rust): A (> 80)

CCC(CC)[C@@H](Oc1cccc(Cl)c1)[C@H](C)OC(=O)[C@@H](NC(=O)c1nccc(OC)c1OCOC(C)=O)C(C)C [Cmpd 647]
SEPTTR 1DP, LV activity at 125.1 g/H (% Control rating) (Zymoseptoria tritici; [10]): A (> 80) | SEPTTR 3DC, LV activity at 125.1 g/H (% Control rating) (Zymoseptoria tritici; [11]): B (≤ 80) | PUCCRT 1DP, LV activity at 125.1 g/H (% Control rating) (Puccinia triticina; [10]): A (> 80) | PUCCRT 3DC, LV activity at 125.1 g/H (% Control rating) (Puccinia triticina; [11]): B (≤ 80)
